Consider two compounds from US10168342B2, “Lipid probes and uses thereof” (THE SCRIPPS RESEARCH INSTITUTE, priority 2015, dated 2019).

Common to all, as to assay: In situ competitive SILAC profiling with A-DA probe in (PMA-stimulated) A549 cells
What all share (settings): A549 cells, A-DA probe

Assay [1] deals with A-DA lipid probe targets in A549 cells (Homo sapiens, UniProt Q9NX47).
Assay [2] deals with T1, A-DA lipid probe targets in A549 cells (Homo sapiens, UniProt Q96KC8).
T1 sequence (Q96KC8 48-554): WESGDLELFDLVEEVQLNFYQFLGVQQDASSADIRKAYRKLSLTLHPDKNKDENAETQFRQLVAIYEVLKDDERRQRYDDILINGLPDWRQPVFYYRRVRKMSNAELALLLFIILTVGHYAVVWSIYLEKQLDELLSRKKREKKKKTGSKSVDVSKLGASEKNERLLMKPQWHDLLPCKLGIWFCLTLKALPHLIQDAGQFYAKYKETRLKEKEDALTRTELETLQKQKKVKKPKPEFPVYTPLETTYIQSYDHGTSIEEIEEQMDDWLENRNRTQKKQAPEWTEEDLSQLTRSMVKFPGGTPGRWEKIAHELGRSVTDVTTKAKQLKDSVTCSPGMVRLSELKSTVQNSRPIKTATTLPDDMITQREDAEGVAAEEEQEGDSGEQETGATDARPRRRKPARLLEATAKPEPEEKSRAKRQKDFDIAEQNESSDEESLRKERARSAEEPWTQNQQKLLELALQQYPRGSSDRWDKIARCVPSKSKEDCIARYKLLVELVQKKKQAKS

The target in assay [3] is T2, A-DA lipid probe targets in A549 cells (Homo sapiens, UniProt P07602).
T2 sequence (P07602 60-524): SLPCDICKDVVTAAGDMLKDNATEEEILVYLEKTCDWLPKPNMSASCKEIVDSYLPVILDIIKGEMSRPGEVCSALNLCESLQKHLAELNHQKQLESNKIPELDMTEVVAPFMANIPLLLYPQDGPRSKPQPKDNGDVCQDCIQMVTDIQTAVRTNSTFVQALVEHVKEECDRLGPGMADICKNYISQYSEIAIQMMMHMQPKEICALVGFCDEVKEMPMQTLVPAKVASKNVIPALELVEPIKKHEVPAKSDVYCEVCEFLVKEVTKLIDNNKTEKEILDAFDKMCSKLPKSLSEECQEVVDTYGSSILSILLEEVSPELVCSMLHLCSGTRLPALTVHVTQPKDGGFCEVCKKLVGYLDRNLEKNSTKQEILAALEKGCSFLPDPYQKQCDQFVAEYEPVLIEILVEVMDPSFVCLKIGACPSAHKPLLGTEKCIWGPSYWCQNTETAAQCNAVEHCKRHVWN

The target of assay [4] is T3, A-DA lipid probe targets in A549 cells (Homo sapiens, UniProt Q8N5I4).
T3 sequence (Q8N5I4 1-330): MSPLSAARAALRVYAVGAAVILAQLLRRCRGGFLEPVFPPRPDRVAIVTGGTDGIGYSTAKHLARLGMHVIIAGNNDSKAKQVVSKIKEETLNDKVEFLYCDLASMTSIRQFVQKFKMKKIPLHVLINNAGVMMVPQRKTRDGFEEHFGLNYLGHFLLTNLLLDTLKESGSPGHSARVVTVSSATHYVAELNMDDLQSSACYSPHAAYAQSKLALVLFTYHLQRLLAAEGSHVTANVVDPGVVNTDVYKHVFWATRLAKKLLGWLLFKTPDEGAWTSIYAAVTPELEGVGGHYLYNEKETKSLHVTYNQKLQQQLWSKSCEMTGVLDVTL

Assay [5] concerns the target T4, A-DA lipid probe targets in A549 cells (Homo sapiens, UniProt Q8IZV5).
T4 sequence (Q8IZV5 1-341): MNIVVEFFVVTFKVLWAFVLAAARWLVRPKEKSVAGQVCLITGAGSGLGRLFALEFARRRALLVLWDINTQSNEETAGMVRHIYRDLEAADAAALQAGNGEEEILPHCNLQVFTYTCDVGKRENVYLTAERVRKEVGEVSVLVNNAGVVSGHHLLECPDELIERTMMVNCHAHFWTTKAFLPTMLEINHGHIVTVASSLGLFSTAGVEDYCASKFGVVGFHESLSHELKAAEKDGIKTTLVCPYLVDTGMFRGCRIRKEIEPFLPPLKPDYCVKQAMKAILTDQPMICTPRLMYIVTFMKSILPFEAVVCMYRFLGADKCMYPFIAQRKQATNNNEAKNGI

Chain of A-DA lipid probe targets in A549 cells (Homo sapiens, UniProt Q9NX47) (Q9NX47 whole entry): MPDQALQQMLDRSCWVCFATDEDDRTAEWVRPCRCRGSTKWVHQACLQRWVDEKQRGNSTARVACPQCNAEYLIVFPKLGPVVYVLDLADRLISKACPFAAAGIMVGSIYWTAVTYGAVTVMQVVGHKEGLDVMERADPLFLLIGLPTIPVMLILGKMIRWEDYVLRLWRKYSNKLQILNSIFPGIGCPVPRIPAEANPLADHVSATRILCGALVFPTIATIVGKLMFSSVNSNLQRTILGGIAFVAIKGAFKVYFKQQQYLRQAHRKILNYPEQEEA

Take `C=CCN(C)CCCCCCOc1ccc(C(=O)c2ccc(Br)cc2)c(F)c1` [Ro488071]: the “SILAC ratio, MARCH5 (Q3KNM2)” value in assay [1] (competitor 5 μM) is 1.2. Moreover, the results for the “SILAC ratio, DNAJC1 (Q96KC8)” value in assay [2] (competitor 5 μM) and in assay [2] (competitor 50 μM) were 1.6 and 3.9, respectively. The results for the “SILAC ratio, PSAP (P07602)” value in assay [3] (competitor 5 μM) and in assay [3] (competitor 50 μM) were 2.3 and 3.1, respectively. For the same compound, the “SILAC ratio, DHRSX (Q8N5I4)” value in assay [4] (competitor 5 μM) turned out to be 1.6; in assay [4] (competitor 50 μM), 2.7. For the same compound, the “SILAC ratio, RDH10 (Q8IZV5)” value in assay [5] (competitor 5 μM) is reported as 1.9; in assay [5] (competitor 50 μM), 2.8.
For `O=C(/C=C/c1cccnc1)NCCCCC1CCN(C(=O)c2ccccc2)CC1` [FK-866, reference compound], the “SILAC ratio, MARCH5 (Q3KNM2)” value in assay [1] (competitor 25 μM) was determined as 1.3. In assay [2] (competitor 25 μM), the “SILAC ratio, DNAJC1 (Q96KC8)” value is recorded as 1.3. Also, the “SILAC ratio, PSAP (P07602)” value in assay [3] (competitor 25 μM) worked out at 1.2. Further, in assay [4] (competitor 25 μM), the “SILAC ratio, DHRSX (Q8N5I4)” value was determined as 1.4. Further, in assay [5] (competitor 25 μM), the “SILAC ratio, RDH10 (Q8IZV5)” value amounted to 3.1.
